Data as given in US12714706B2, “Methods of treating small cell lung cancer with lurbinectedin formulations” (PHARMA MAR, S.A., priority 2019, dated 2026).
Several values for one entry are separate records, joined by “and”; a condition that tells them apart may be missing. Equal entries are not always repeated. Where two headings read alike, the source gives them in different places.

Assays:
[1] = Electrostatic charge measurements with a Faraday cage; type: physicochemical; conditions: dry nitrogen, 95% confidence
Procedure: This technique consists in placing the sample to be measured (q) in the interior of the inner sphere (a) and measuring the difference of potential induced between sphere (a) and another conductor of reference, sphere (b). The external sphere (c) is grounded in order to shield the system.
Measurements were carried out under controlled atmosphere of dry nitrogen in order to avoid the effect of ambient humidity on the electrostatic charge of the samples. Samples were introduced in glass capsules using non-conductor instrumental to avoid loses of electrostatic charge. The capsules loaded with the samples were introduced in the Faraday cage through a grounded conductor tube to avoid parasitic static charges in the glass capsule. The entry and removal of the capsules was done with a computer-controlled servo engine, in order to ensure a constant rate of introduction and removal of the capsules in each measurement to minimize the creation of static charges due to friction of the insulator elements.
Results: Several measurements with different amounts of material were carried out for each batch of each form of lurbinectedin. Before loading the capsules, they were washed and their remaining static charge was measured in order to correct the levels. Each sample was introduced and removed five times and, after each introduction, several consecutive measurements were taken in order to average any possible drift effect.
The data was fitted by lineal regression (dashed lines in FIGS. 9a and 9b) to obtain the charge density (Q/m) as the slope of the line.

[2] = Analytical results and impurity profile of batches of Form A and Form B of lurbinectedin; type: physicochemical; design: Impurity RRT approx. 1.10-1.11 / Impurity RRT approx. 1.12 / Impurity RRT approx. 1.27-1.34 / Impurity RRT approx. 1.29-1.30 / Impurity RRT approx. 1.30-1.32 / Impurity RRT approx. 1.28-1.37 / Impurity RRT approx. 2.37 / Impurity RRT approx. 2.41-2.52 / Impurity RRT approx. 2.85 / Impurity RRT approx. 0.66-0.69 / Impurity RRT approx. 0.72-0.76: unit not given here; conditions: for Impurity RRT aprox 0.66-0.69 / Impurity RRT aprox 0.72-0.76 / Impurity RRT aprox 0.90-0.92: batches of Form B
Excerpt: Several batches of Form A of lurbinectedin were manufactured by this method.
Several batches of Form B of lurbinectedin were manufactured by this method.

SCLC = test: Post-hoc exploratory analysis of response in SCLC patients who had previously received immunotherapy; type: in vivo, human; conditions: individual SCLC patients, therapy before lurbinectedin
Excerpt: Post-hoc exploratory analysis was done on the response in patients who had previously received immunotherapy (n=8).

[3] = irinotecan 125 mg/m2 (Camptosar label); n=64; mean (SD); cited from earlier work
[4] = Direct dissolution of lurbinectedin at 0.5 mg/mL in 0.03 M sodium lactate buffer pH 4; type: physicochemical
Excerpt: In embodiments, the lurbinectedin to be dissolved is at least partially crystalline. The lurbinectedin to be dissolved may be in the solid state form(s) described herein.

[5] = DVS (dynamic vapor sorption); type: physicochemical
Procedure: DVS experiments were carried out with a Projekt Messtechnik SPS 11-100n multi-sample water vapor sorption analyzer. The sample was allowed to equilibrate at 50% r.h. before starting a pre-defined humidity program. The program was: • 2 h at 50% r.h. • 50 to 0% r.h. (5%/h) • 5 h at 0% r.h. • 0 to 95% r.h (5%/h) • 5 h at 95% r.h. • 95 to 50% (5%/h) • 2 h at 50% r.h.

TG-FTIR = type: physicochemical
Procedure: TG-FTIR experiments were conducted with a Thermo-Microbalance TG-209 (Netzsch) equipped with a FT-IR Spectrometer Vector 22 (Bruker) using Al crucible (open or with microhole) under N2 atmosphere with a heating range between 25 and 250° C. and a heating rate of 10° C./min.

DSC = type: physicochemical
Procedure: DSC experiments were carried out with a Perkin Elmer DSC 7 using closed Au crucibles with a heating range between −50 to 250° C. and a heating rate of 10 or 20° C./min.

[6] = Lurbinectedin plus irinotecan trial: pharmacokinetics of lurbinectedin, irinotecan and SN-38; conditions: combination: lurbinectedin 1.0-2.4 mg/m2 + irinotecan 75 mg/m2; n=39; mean (SD)
[7] = batches of Form A of lurbinectedin, listed as P04
[8] = impurity profile, batches of Form A, listed as P04
[9] = batches of Form A of lurbinectedin, listed as R05
[10] = impurity profile, batches of Form A, listed as R05
[11] = batches of Form B of lurbinectedin
[12] = batches of Form B of lurbinectedin, listed as 1924129-LT
[13] = impurity profile, listed as 1924129-LT
[14] = batches of Form B of lurbinectedin, listed as 1924128-LT
[15] = impurity profile, listed as 1924128-LT

## COc1ccc2[nH]c3c(c2c1)CCN[C@]31CS[C@@H]2c3c(OC(C)=O)c(C)c4c(c3[C@H](COC1=O)N1[C@@H]2[C@H]2c3c(cc(C)c(OC)c3O)C[C@@H]([C@@H]1O)N2C)OCO4 [Batch P04]
[1]; listed as P04
  Average charge density (Q/m): 43.1 ± 3.86 nC/g
  Dispersion of charge density (Q/m): 7.6 ± 2.8 nC/g
[2]; batches of Form A of lurbinectedin
  Residual Solvents Ethyl acetate: <LOQ
[2]; [7]
  Impurities Total: 0.2 % Area
  Residual Solvents Acetonitrile: <LOQ
  Residual Solvents Dichloro-methane: <LOQ
  Residual Solvents Hexane: <LOQ
  Residual Solvents Methanol: 1.6 % w/w
  Residual Solvents Pentane: 0.5 % w/w
  Residual Solvents Total: 2.1 % w/w
  Water Content: 1.6 % w/w
[2]; [8]
  Impurity RRT approx. 0.72-0.76: 0.09
  Impurity RRT approx. 1.29-1.30: 0.10

## Nivolumab
SCLC; resistant disease
  Last prior therapy: TTP: 2.2 months and 4.1 months and 2.5 months
SCLC; sensitive disease
  Last prior therapy: TTP: 1.8 months and 1.4 months

## COc1ccc2[nH]c3c(c2c1)CCN[C@]31CS[C@@H]2c3c(OC(C)=O)c(C)c4c(c3[C@H](COC1=O)N1[C@@H]2[C@H]2c3c(cc(C)c(OC)c3O)C[C@@H]([C@@H]1O)N2C)OCO4 [Batch R05]
[1]; listed as R05
  Average charge density (Q/m): 64.02 ± 7.98 nC/g
  Dispersion of charge density (Q/m): 15.23 ± 5.64 nC/g
[2]; [9]
  Impurities Total: 0.4 % Area
  Residual Solvents Acetonitrile: <LOQ
  Residual Solvents Dichloro-methane: <LOQ
  Residual Solvents Hexane: <LOQ
  Residual Solvents Methanol: 2.2 % w/w
  Residual Solvents Pentane: 0.3 % w/w
  Residual Solvents Total: 2.5 % w/w
  Water Content: 1.1 % w/w
[2]; impurity profile, batches of Form A
  Impurity RRT approx. 2.37: 0.13
[2]; [10]
  Impurity RRT approx. 0.72-0.76: 0.10
  Impurity RRT approx. 1.10-1.11: 0.09
  Impurity RRT approx. 1.29-1.30: 0.05

## CCc1c2c(nc3ccc(OC(=O)N4CCC(N5CCCCC5)CC4)cc13)-c1cc3c(c(=O)n1C2)COC(=O)[C@]3(O)CC [irinotecan, reference compound]
[3]
  HL: 11.7 (9) h

## COc1ccc2[nH]c3c(c2c1)CCN[C@]31CS[C@@H]2c3c(OC(C)=O)c(C)c4c(c3[C@H](COC1=O)N1[C@@H]2[C@H]2c3c(cc(C)c(OC)c3O)C[C@@H]([C@@H]1O)N2C)OCO4 [Batch 1924129-LT]
[1]; listed as 1924129-LT
  Average charge density (Q/m): 4.96 ± 2.0 nC/g
  Dispersion of charge density (Q/m): 3.4 ± 1.4 nC/g
[2]; [11]
  Residual Solvents Acetonitrile: <LOQ
  Residual Solvents CH2Cl2: <LOQ
  Residual Solvents Methanol: <LOQ
  Residual Solvents Pentane: <LOQ
  Residual Solvents Total: 0.0 % w/w
[2]; [12]
  Total Impurities: 0.4 % Area
  Water Content: 4.1 % w/w
[2]; [13]
  Impurity RRT aprox 0.66-0.69: 0.07 % area
  Impurity RRT aprox 0.72-0.76: 0.24 % area
  Impurity RRT aprox 0.90-0.92: 0.08 % area

## COc1ccc2[nH]c3c(c2c1)CCN[C@]31CS[C@@H]2c3c(OC(C)=O)c(C)c4c(c3[C@H](COC1=O)N1[C@@H]2[C@H]2c3c(cc(C)c(OC)c3O)C[C@@H]([C@@H]1O)N2C)OCO4 [Batch 1924128-LT]
[1]; listed as 1924128-LT
  Average charge density (Q/m): 4.3 ± 0.4 nC/g
  Dispersion of charge density (Q/m): 1.01 ± 0.3 nC/g
[2]; [14]
  Total Impurities: 0.4 % Area
  Water Content: 3.0 % w/w
[2]; [15]
  Impurity RRT aprox 0.66-0.69: 0.06 % area
  Impurity RRT aprox 0.72-0.76: 0.25 % area
  Impurity RRT aprox 0.90-0.92: 0.07 % area

## COc1ccc2[nH]c3c(c2c1)CCN[C@]31CS[C@@H]2c3c(OC(C)=O)c(C)c4c(c3[C@H](COC1=O)N1[C@@H]2[C@H]2c3c(cc(C)c(OC)c3O)C[C@@H]([C@@H]1O)N2C)OCO4 [Form B of lurbinectedin]
[4]; 0.5 mg/mL in 0.03 M sodium lactate buffer pH 4, in 2 hours
  Fraction of the target concentration reached: 60-70%
[5]
  Deliquescence by DVS: not deliquescent
  Hygroscopicity by DVS: hygroscopic
[5]; 50 to 96% r.h.
  DVS mass change Δm: 4%
TG-FTIR
  Degradation temperature by TG-FTIR: above 150 °C
  Release of water by TG-FTIR: 2.6%
DSC
  Temperature at which degradation begins by DSC: above 130 °C

## COc1ccc2[nH]c3c(c2c1)CCN[C@]31CS[C@@H]2c3c(OC(C)=O)c(C)c4c(c3[C@H](COC1=O)N1[C@@H]2[C@H]2c3c(cc(C)c(OC)c3O)C[C@@H]([C@@H]1O)N2C)OCO4 [Form A of lurbinectedin]
[4]; 0.5 mg/mL in 0.03 M sodium lactate buffer pH 4
  Time to complete direct dissolution: approximately 30 minutes

## CCc1c2c(nc3ccc(O)cc13)-c1cc3c(c(=O)n1C2)COC(=O)[C@]3(O)CC [SN-38]
[6]
  CL: 810.3 (574) L/h
  Cmax: 18.1 (7.7) ug/L
  HL: 18.6 (9.1) h
  Vz: 18232.3 (8208.4) L
[3]
  Cmax: 26.3 (11.9) ug/L
  HL: 21.0 (20) h
